What was measured:
[1] = molecular target: T1, human bradykinin 1 receptor (B1R) (Homo sapiens, UniProt P46663); assay: Functional investigation on the human bradykinin 1 receptor (B1R), Ca2+ FLIPR assay in CHO K1 hB1R cells; type: cell-based; settings: B1R antagonism human; test substance 10 μM; Ca2+ FLIPR, CHO K1 hB1R cells
T1 construct: expressed in transfected cells; host or cells: CHO K1 cells
T1 sequence (P46663 1-353): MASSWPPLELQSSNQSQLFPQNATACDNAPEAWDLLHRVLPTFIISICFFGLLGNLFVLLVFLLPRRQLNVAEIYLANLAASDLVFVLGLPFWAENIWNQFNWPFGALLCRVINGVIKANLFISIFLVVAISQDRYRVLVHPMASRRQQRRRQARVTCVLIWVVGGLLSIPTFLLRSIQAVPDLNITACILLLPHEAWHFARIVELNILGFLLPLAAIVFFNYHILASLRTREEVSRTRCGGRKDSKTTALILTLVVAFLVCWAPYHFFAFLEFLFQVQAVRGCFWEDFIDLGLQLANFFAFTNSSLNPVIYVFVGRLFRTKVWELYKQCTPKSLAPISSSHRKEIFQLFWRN
Procedure, shortened: (§1)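 Stably transfected CHO K1 cells loaded with Fluo-4; FLIPR Ca2+ fluorescence peak (ex 488/em 540 nm). Compound added first (agonism vs Lys-Des-Arg9-bradykinin ≥50 nM human, Des-Arg9-bradykinin 10 μM rat), then after 10-20 min agonist at EC80; antagonism as % inhibition, IC50 from concentration series, n=2-3, N≥2.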

[2] = molecular target: T2, bradykinin 1 receptor (B1R) of the rat (Rattus norvegicus, UniProt P97583); assay: Functional investigation on the rat bradykinin 1 receptor (B1R), Ca2+ FLIPR assay in CHO K1 rB1R cells; type: cell-based; settings: B1R antagonism rat; test substance 10 μM; Ca2+ FLIPR, CHO K1 rB1R cells
T2 construct: expressed in transfected cells; host or cells: CHO K1 cells
T2 sequence (P97583 1-337): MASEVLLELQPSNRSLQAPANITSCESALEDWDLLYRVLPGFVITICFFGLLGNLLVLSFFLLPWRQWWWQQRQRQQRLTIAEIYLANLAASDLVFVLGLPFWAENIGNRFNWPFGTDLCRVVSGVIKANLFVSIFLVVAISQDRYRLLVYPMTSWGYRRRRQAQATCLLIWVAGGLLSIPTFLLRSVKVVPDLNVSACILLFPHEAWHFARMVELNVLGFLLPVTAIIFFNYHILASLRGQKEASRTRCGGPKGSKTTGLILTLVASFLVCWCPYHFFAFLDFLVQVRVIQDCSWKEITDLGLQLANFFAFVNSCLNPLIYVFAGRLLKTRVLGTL
Procedure, shortened: as §1

Compound | B1R Ant. h [10 μM] % Inhibition [1] [%] | B1R Ant. r [10 μM] % Inhibition [2] [%]
CN(C)C(c1ccc(Cl)cc1)C1CCC(CCNC(=O)COC2CCN(S(=O)(=O)c3cccc(C(F)(F)F)c3)C2)CC1 (stereo not drawn) [Example 431] | 25 | 34
CCN(CCOCC(=O)NCCC1CCC(C(c2ccc(F)cc2)N(C)C)CC1)S(=O)(=O)c1c(C)cc(OC)c(C)c1C (stereo not drawn) [Example 413] | 96 | 83
COc1cc(C)c(S(=O)(=O)N2CCN(CCOCC(=O)NCC3CCC(C(c4ccc(Cl)cc4)N(C)C)CC3)CC2)c(C)c1C (stereo not drawn) [Example 429] | 75 | 13
COc1ccc(S(=O)(=O)N2Cc3ccccc3CC2COCC(=O)NCCC2CCC(C(c3ccc(F)cc3)N(C)C)CC2)cc1 (stereo not drawn) [Example 389] | 36 | 21
CN(C)C(c1ccc(F)cc1)C1CCC(NC(=O)COC2CCN(S(=O)(=O)c3ccc(F)cc3)C2)CC1 (stereo not drawn) [Example 381] | −19 | 12
CCN(CCOCC(=O)NC1CCC(C(c2ccc(F)cc2)N(C)C)CC1)S(=O)(=O)c1c(C)cc(OC)c(C)c1C (stereo not drawn) [Example 396] | 70 | 68
CN(C)C(c1ccc(F)cc1)C1CCC(CNC(=O)COCCN(C)S(=O)(=O)c2cccc(C(F)(F)F)c2)CC1 (stereo not drawn) [Example 390] | 55 | 16
COc1cc(C)c(S(=O)(=O)N(C)CCOCC(=O)NCCC2CCC(C(c3ccc(F)cc3)N(C)C)CC2)c(C)c1 (stereo not drawn) [Example 392] | 104 | 103
CN(C)C(c1ccc(F)cc1)C1CCC(CCNC(=O)COCCN(C)S(=O)(=O)c2ccc(OC(F)(F)F)cc2)CC1 (stereo not drawn) [Example 446] | 19 | 33
CN(C)C(c1ccc(F)cc1)C1CCC(CNC(=O)COCCN(C)S(=O)(=O)c2ccc(Cl)cc2)CC1 (stereo not drawn) [Example 399] | 20 | 29
CN(C)C(c1ccc(Cl)cc1)C1CCC(CCNC(=O)COC2CCN(S(=O)(=O)c3ccccc3)C2)CC1 (stereo not drawn) [Example 375] | 2 | 6
Cc1ccc(S(=O)(=O)N(C)CCOCC(=O)NC2CCC(C(c3ccc(F)cc3)N(C)C)CC2)cc1 (stereo not drawn) [Example 448] | 0 | 12
CN(C)C(c1ccc(F)cc1)C1CCC(CNC(=O)COCCN(C)S(=O)(=O)c2ccc(F)cc2)CC1 (stereo not drawn) [Example 400] | 3 | 9
Cc1ccc(S(=O)(=O)N2CCC(OCC(=O)NC3CCC(C(c4ccc(F)cc4)N(C)C)CC3)C2)cc1 (stereo not drawn) [Example 371] | 7 | 5
COc1ccc(S(=O)(=O)N2CCCCC2COCC(=O)NCC2CCC(C(c3ccc(Cl)cc3)N(C)C)CC2)cc1OC (stereo not drawn) [Example 367] | −9 | 2
CN(C)C(c1ccc(F)cc1)C1CCC(CCNC(=O)COCCN(C)S(=O)(=O)c2ccc(Cl)cc2)CC1 (stereo not drawn) [Example 377] | 28 | 25
COc1cc(C)c(S(=O)(=O)N(CCOCC(=O)NCCC2CCC(C(c3cccc(F)c3)N(C)C)CC2)Cc2ccccc2)c(C)c1C (stereo not drawn) [Example 436] | 8 | 10
COc1cc(C)c(S(=O)(=O)N2CCC(OCC(=O)NC3CCC(C(c4ccc(F)cc4)N(C)C)CC3)C2)c(C)c1C (stereo not drawn) [Example 365] | 48 | 2
COc1ccc(S(=O)(=O)N(C)CCOCC(=O)NCC2CCC(C(c3ccc(Cl)cc3)N(C)C)CC2)cc1OC (stereo not drawn) [Example 379] | −5 | 49
COc1ccc(S(=O)(=O)N2Cc3ccccc3CC2COCC(=O)NCCC2CCC(C(c3ccc(Cl)cc3)N(C)C)CC2)cc1 (stereo not drawn) [Example 374] | 18 | 11
COc1ccc(S(=O)(=O)N2CCCCC2CCOCC(=O)NCCC2CCC(C(c3ccc(F)cc3)N(C)C)CC2)cc1 (stereo not drawn) [Example 398] | 80 | 56
